A value given as a limit tells only on which side of the number the result lay.

16 compounds from patent US9073855B2, “BCL-2 selective apoptosis-inducing agents for the treatment of cancer and immune diseases” (AbbVie Inc., priority 2008, dated 2015) can be followed below.

One assay has as its target GST-Bcl-2 (Homo sapiens, UniProt P10415). As to the kind of experiment: TR-FRET binding assay, GST-Bcl-2 with F-Bak peptide probe. The settings on record: TR-FRET Binding Affinity, GST-Bcl-2, F-Bak peptide probe. A digest of the protocol: (§1)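 Ki was derived with Wang's equation for competitive binding of two ligands. The read-out was time-resolved fluorescence after a 3 h room-temperature incubation, using a Tb-labelled antibody donor and the F-Bak peptide acceptor (excitation 340/35 nm). Test compounds entered as DMSO serial dilutions starting at 50 μM, which was the 2× concentration.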

In the next assay the test system is FL5.12/Bcl-2 cells. Kind of assay: FL5.12/Bcl-2 cell viability assay under IL-3 withdrawal (CellTitre Glo). The settings on record: Mus musculus, IL-3 withdrawn 48 hrs, then 24 hrs with compound. Type of assay: cell-based, murine. The procedure, abridged: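 Bcl-2-overexpressing murine FL5.12 transfectants underwent IL-3 removal for 48 hrs before a 24 hr compound treatment. Cell viability was quantified with CellTitre Glo.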

The target in another assay is GST-Bcl-XL (Homo sapiens, UniProt Q07817). As to the kind of experiment: TR-FRET binding assay, GST-Bcl-XL with F-Bak peptide probe. The settings on record: TR-FRET Binding Affinity, GST-Bcl-XL, F-Bak peptide probe. A digest of the protocol: as §1
Chain of GST-Bcl-XL (Q07817 whole entry): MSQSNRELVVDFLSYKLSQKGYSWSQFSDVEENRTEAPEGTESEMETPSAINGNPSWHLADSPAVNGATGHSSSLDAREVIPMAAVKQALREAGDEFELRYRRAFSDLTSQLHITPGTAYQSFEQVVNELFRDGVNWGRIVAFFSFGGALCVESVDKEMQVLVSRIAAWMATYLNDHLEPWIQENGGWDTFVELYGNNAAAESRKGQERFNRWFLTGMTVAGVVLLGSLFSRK

Chain of GST-Bcl-2 (P10415 whole entry): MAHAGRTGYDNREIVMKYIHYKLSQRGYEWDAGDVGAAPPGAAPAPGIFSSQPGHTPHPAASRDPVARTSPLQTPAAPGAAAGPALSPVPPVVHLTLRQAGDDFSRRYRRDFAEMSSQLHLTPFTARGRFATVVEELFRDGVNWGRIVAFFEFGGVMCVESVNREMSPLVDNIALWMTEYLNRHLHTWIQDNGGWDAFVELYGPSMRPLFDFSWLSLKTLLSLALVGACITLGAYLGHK

With `CN1CCN(Nc2ccc(S(=O)(=O)NC(=O)c3ccc(N4CCN(CC5=C(c6ccc(Cl)cc6)CC(C)(C)CC5)CC4)cc3Oc3cccc4[nH]ccc34)cc2S(=O)(=O)C(F)(F)F)CC1` [Example 215, 4-(4-{[2-(4-chlorophenyl)-4,4-dimethylcyclohex-1-en-1-yl]methyl}piperazin-1-yl)-2-(1H-indol-4-yloxy)-N-({4-[(4-methylpiperazin-1-yl)amino]-3-[(trifluoromethyl)sulfonyl]phenyl}sulfonyl)benzamide], the inhibition constant (Ki) at GST-Bcl-2 amounted to 0.503 nM; at GST-Bcl-XL, 60.8 nM. Moreover, the EC50 in the assay on FL5.12/Bcl-2 cells was determined as 116 nM.

With `CC1(C)CCC(CN2CCN(c3ccc(C(=O)NS(=O)(=O)c4ccc(NC5CCN(CCCC(F)(F)F)CC5)c([N+](=O)[O-])c4)c(Oc4ccc5[nH]ccc5c4)c3)CC2)=C(c2ccc(Cl)cc2)C1` [Example 216, 4-(4-{[2-(4-chlorophenyl)-4,4-dimethylcyclohex-1-en-1-yl]methyl}piperazin-1-yl)-2-(1H-indol-5-yloxy)-N-[(3-nitro-4-{[1-(4,4,4-trifluorobutyl)piperidin-4-yl]amino}phenyl)sulfonyl]benzamide], the Ki is 0.615 nM on GST-Bcl-2 and above 660 nM at GST-Bcl-XL. Moreover, in the assay on FL5.12/Bcl-2 cells, the EC50 was found to be 39.8 nM.

As to `CC(c1ccccc1-c1ccc(Cl)cc1)N1CCN(c2ccc(C(=O)NS(=O)(=O)c3ccc(NN4CCN(C)CC4)c([N+](=O)[O-])c3)c(Oc3cccc4[nH]ccc34)c2)CC1` (stereo not drawn) [Example 217, 4-{4-[1-(4′-chloro-1,1′-biphenyl-2-yl)ethyl]piperazin-1-yl}-2-(1H-indol-4-yloxy)-N-({4-[(4-methylpiperazin-1-yl)amino]-3-nitrophenyl}sulfonyl)benzamide], the inhibitory constant (Ki) on GST-Bcl-2 is 0.262 nM; on GST-Bcl-XL it was 44.8 nM. Also, the EC50 with FL5.12/Bcl-2 cells is 20.8 nM.

Turning to `CN1CCC(Nc2ccc(S(=O)(=O)NC(=O)c3ccc(N4CCN(CC5=C(c6ccc(Cl)cc6)CC(C)(C)CC5)C(CO)C4)cc3Oc3ccc4[nH]ccc4c3)cc2[N+](=O)[O-])CC1` (stereo not drawn) [Example 218, 4-[4-{[2-(4-chlorophenyl)-4,4-dimethylcyclohex-1-en-1-yl]methyl}-3-(hydroxymethyl)piperazin-1-yl]-2-(1H-indol-5-yloxy)-N-({4-[(1-methylpiperidin-4-yl)amino]-3-nitrophenyl}sulfonyl)benzamide], the inhibition constant Ki at GST-Bcl-2 worked out at 0.131 nM; at GST-Bcl-XL it was 96.9 nM. Also, the EC50 with FL5.12/Bcl-2 cells worked out at 33 nM.

Turning to `CC1(C)CCC(CN2CCN(c3ccc(C(=O)NS(=O)(=O)c4ccc(NC5CCN(C6CCOCC6)CC5)c([N+](=O)[O-])c4)c(Oc4ccc5[nH]ccc5c4)c3)CC2CO)=C(c2ccc(Cl)cc2)C1` (stereo not drawn) [Example 219, 4-[4-{[2-(4-chlorophenyl)-4,4-dimethylcyclohex-1-en-1-yl]methyl}-3-(hydroxymethyl)piperazin-1-yl]-2-(1H-indol-5-yloxy)-N-({3-nitro-4-[(1-tetrahydro-2H-pyran-4-ylpiperidin-4-yl)amino]phenyl}sulfonyl)benzamide], the Ki turned out to be 0.236 nM at GST-Bcl-2 and 29.9 nM at GST-Bcl-XL. The EC50 with FL5.12/Bcl-2 cells is 23 nM.

On to `CN1CCN(Nc2ccc(S(=O)(=O)NC(=O)c3ccc(N4CCN(CC5=C(c6ccc(Cl)cc6)CC(C)(C)CC5)CC4)cc3Oc3ccc4[nH]ccc4c3)cc2S(=O)(=O)C(F)(F)F)CC1` [Example 220, 4-(4-{[2-(4-chlorophenyl)-4,4-dimethylcyclohex-1-en-1-yl]methyl}piperazin-1-yl)-2-(1H-indol-5-yloxy)-N-({4-[(4-methylpiperazin-1-yl)amino]-3-[(trifluoromethyl)sulfonyl]phenyl}sulfonyl)benzamide], for which the Ki at GST-Bcl-2 worked out at 0.192 nM; at GST-Bcl-XL, 31.4 nM. For the same compound, in the assay with FL5.12/Bcl-2 cells, the EC50 was 24 nM.

`CN1CCC(Nc2ccc(S(=O)(=O)NC(=O)c3ccc(N4CCN(Cc5cc(OCCO)ccc5-c5ccc(Cl)cc5)CC4)cc3Oc3cccc4[nH]ccc34)cc2[N+](=O)[O-])CC1` [Example 221, 4-(4-{[4′-chloro-4-(2-hydroxyethoxy)-1,1′-biphenyl-2-yl]methyl}piperazin-1-yl)-2-(1H-indol-4-yloxy)-N-({4-[(1-methylpiperidin-4-yl)amino]-3-nitrophenyl}sulfonyl)benzamide]: the figures for the Ki at GST-Bcl-2 and at GST-Bcl-XL were 0.057 nM and 170 nM, respectively. The concentration for a half-maximal effect (EC50) in the assay on FL5.12/Bcl-2 cells was found to be 149 nM.

As for `CC1(C)CCC(CN2CCN(c3ccc(C(=O)NS(=O)(=O)c4ccc(NCCCN5CCNC(=O)C5)c([N+](=O)[O-])c4)c(Oc4ccc5[nH]ccc5c4)c3)CC2)=C(c2ccc(Cl)cc2)C1` [Example 222, 4-(4-{[2-(4-chlorophenyl)-4,4-dimethylcyclohex-1-en-1-yl]methyl}piperazin-1-yl)-2-(1H-indol-5-yloxy)-N-[(3-nitro-4-{[3-(3-oxopiperazin-1-yl)propyl]amino}phenyl)sulfonyl]benzamide], the inhibition constant Ki is 0.107 nM at GST-Bcl-2 and 137 nM at GST-Bcl-XL. Further, in the assay with FL5.12/Bcl-2 cells, the 50% effective concentration (EC50) was determined as 23.7 nM.

As for `CC1(C)CCC(CN2CCN(c3ccc(C(=O)NS(=O)(=O)c4ccc(NCCCN5CCNC(=O)C5)c([N+](=O)[O-])c4)c(Oc4cccc5[nH]ccc45)c3)CC2)=C(c2ccc(Cl)cc2)C1` [Example 223, 4-(4-{[2-(4-chlorophenyl)-4,4-dimethylcyclohex-1-en-1-yl]methyl}piperazin-1-yl)-2-(1H-indol-4-yloxy)-N-[(3-nitro-4-{[3-(3-oxopiperazin-1-yl)propyl]amino}phenyl)sulfonyl]benzamide], the inhibition constant Ki worked out at 0.169 nM at GST-Bcl-2 and 97.3 nM on GST-Bcl-XL. Besides, the 50% effective concentration (EC50) in the assay on FL5.12/Bcl-2 cells is 37.1 nM.

Regarding `CN1CCC(Nc2ccc(S(=O)(=O)NC(=O)c3ccc(N4CCN(CC5=C(c6ccc(Cl)cc6)CCC(O)C5)CC4)cc3Oc3ccc4[nH]ccc4c3)cc2[N+](=O)[O-])CC1` (stereo not drawn) [Example 224, 4-(4-{[2-(4-chlorophenyl)-5-hydroxycyclohex-1-en-1-yl]methyl}piperazin-1-yl)-2-(1H-indol-5-yloxy)-N-({4-[(1-methylpiperidin-4-yl)amino]-3-nitrophenyl}sulfonyl)benzamide], the figures for the inhibition constant Ki at GST-Bcl-2 and on GST-Bcl-XL were below 0.01 nM and 0.999 nM, respectively. In the assay on FL5.12/Bcl-2 cells, the half-maximal effective concentration (EC50) was 21.2 nM.

`O=C(NS(=O)(=O)c1ccc(NC2CCN(C3CCOCC3)CC2)c([N+](=O)[O-])c1)c1ccc(N2CCN(CC3=C(c4ccc(Cl)cc4)CCC(O)C3)CC2)cc1Oc1ccc2[nH]ccc2c1` (stereo not drawn) [Example 225, 4-(4-{[2-(4-chlorophenyl)-5-hydroxycyclohex-1-en-1-yl]methyl}piperazin-1-yl)-2-(1H-indol-5-yloxy)-N-({3-nitro-4-[(1-tetrahydro-2H-pyran-4-ylpiperidin-4-yl)amino]phenyl}sulfonyl)benzamide]: the Ki on GST-Bcl-2 stood at 0.01 nM; on GST-Bcl-XL, 3.48 nM. Further, the EC50 in the assay with FL5.12/Bcl-2 cells is 29.9 nM.

With `CN1CCN(Nc2ccc(S(=O)(=O)NC(=O)c3ccc(N4CCN(CC5=C(c6ccc(Cl)cc6)CCC(O)C5)CC4)cc3Oc3ccc4[nH]ccc4c3)cc2[N+](=O)[O-])CC1` (stereo not drawn) [Example 226, 4-(4-{[2-(4-chlorophenyl)-5-hydroxycyclohex-1-en-1-yl]methyl}piperazin-1-yl)-2-(1H-indol-5-yloxy)-N-({4-[(4-methylpiperazin-1-yl)amino]-3-nitrophenyl}sulfonyl)benzamide], the values for the Ki at GST-Bcl-2 and at GST-Bcl-XL were 0.017 nM and 9.93 nM, respectively. In addition, in the assay on FL5.12/Bcl-2 cells, the concentration giving a half-maximal response (EC50) is 23 nM.

`CC1(C)CCC(CN2CCN(c3ccc(C(=O)NS(=O)(=O)c4ccc(NC5CCN(C6Cc7ccccc7C6)CC5)c([N+](=O)[O-])c4)c(Oc4cccc5[nH]ccc45)c3)CC2)=C(c2ccc(Cl)cc2)C1` [Example 227, 4-(4-{[2-(4-chlorophenyl)-4,4-dimethylcyclohex-1-en-1-yl]methyl}piperazin-1-yl)-N-[(4-{[1-(2,3-dihydro-1H-inden-2-yl)piperidin-4-yl]amino}-3-nitrophenyl)sulfonyl]-2-(1H-indol-4-yloxy)benzamide]: the figures for the inhibitory constant (Ki) on GST-Bcl-2 and at GST-Bcl-XL were 6.83 nM and above 660 nM, respectively. The concentration for a half-maximal effect (EC50) with FL5.12/Bcl-2 cells was above 500 nM.

On to `CC1(C)CCC(CN2CCN(c3ccc(C(=O)NS(=O)(=O)c4ccc(NC5CCN(C6Cc7ccccc7C6)CC5)c([N+](=O)[O-])c4)c(Oc4ccc5[nH]ccc5c4)c3)CC2)=C(c2ccc(Cl)cc2)C1` [Example 228, 4-(4-{[2-(4-chlorophenyl)-4,4-dimethylcyclohex-1-en-1-yl]methyl}piperazin-1-yl)-N-[(4-{[1-(2,3-dihydro-1H-inden-2-yl)piperidin-4-yl]amino}-3-nitrophenyl)sulfonyl]-2-(1H-indol-5-yloxy)benzamide], for which the figures for the inhibition constant (Ki) on GST-Bcl-2 and at GST-Bcl-XL were 4.67 nM and above 660 nM, respectively. Further, the half-maximal effective concentration (EC50) in the assay with FL5.12/Bcl-2 cells is above 500 nM.

For `CC1(C)CCC(CN2CCN(c3ccc(C(=O)NS(=O)(=O)c4ccc(NCC5(N6CCOCC6)CCCCC5)c([N+](=O)[O-])c4)c(Oc4ccc5[nH]ccc5c4)c3)CC2)=C(c2ccc(Cl)cc2)C1` [Example 229, 4-(4-{[2-(4-chlorophenyl)-4,4-dimethylcyclohex-1-en-1-yl]methyl}piperazin-1-yl)-2-(1H-indol-5-yloxy)-N-[(4-{[(1-morpholin-4-ylcyclohexyl)methyl]amino}-3-nitrophenyl)sulfonyl]benzamide], the Ki is 49.4 nM on GST-Bcl-2 and above 660 nM on GST-Bcl-XL. For the same compound, the concentration giving a half-maximal response (EC50) with FL5.12/Bcl-2 cells is above 500 nM.

Take `CC1(C)CCC(CN2CCN(c3ccc(C(=O)NS(=O)(=O)c4ccc(NC5CCN(Cc6nccs6)CC5)c([N+](=O)[O-])c4)c(Oc4ccc5[nH]ccc5c4)c3)CC2)=C(c2ccc(Cl)cc2)C1` [Example 230, 4-(4-{[2-(4-chlorophenyl)-4,4-dimethylcyclohex-1-en-1-yl]methyl}piperazin-1-yl)-2-(1H-indol-5-yloxy)-N-[(3-nitro-4-{[1-(1,3-thiazol-2-ylmethyl)piperidin-4-yl]amino}phenyl)sulfonyl]benzamide]: the figures for the inhibition constant Ki on GST-Bcl-2 and at GST-Bcl-XL were 8.82 nM and above 660 nM, respectively. Besides, the EC50 in the assay with FL5.12/Bcl-2 cells worked out at 178 nM.
